What all share (experiment): luciferase reporter transactivation in HEK293 cells
Holding throughout (format): cell-based
Background: In a reporter assay the amount or activity of a reporter protein is the signal.

Assay [1] concerns the target T1, FLAG-tagged wild-type elephant shark GR (Callorhinchus milii, UniProt A0A4W3H7L4).
T1 construct: full-length, N-terminal FLAG tag, transiently expressed in HEK293 cells
To be noted: MMTV-luc promoter; agonist; 37 C. An excerpt: (§1) luciferase reporter transactivation in HEK293 cells on FLAG-tagged wild-type elephant shark GR

The target in assay [2] is T2, FLAG-tagged wild-type elephant shark GR (Callorhinchus milii, UniProt A0A4W3H7L4).
T2 construct: full-length, N-terminal FLAG tag, transiently expressed in HEK293 cells
T2 sequence (A0A4W3H7L4 1-704): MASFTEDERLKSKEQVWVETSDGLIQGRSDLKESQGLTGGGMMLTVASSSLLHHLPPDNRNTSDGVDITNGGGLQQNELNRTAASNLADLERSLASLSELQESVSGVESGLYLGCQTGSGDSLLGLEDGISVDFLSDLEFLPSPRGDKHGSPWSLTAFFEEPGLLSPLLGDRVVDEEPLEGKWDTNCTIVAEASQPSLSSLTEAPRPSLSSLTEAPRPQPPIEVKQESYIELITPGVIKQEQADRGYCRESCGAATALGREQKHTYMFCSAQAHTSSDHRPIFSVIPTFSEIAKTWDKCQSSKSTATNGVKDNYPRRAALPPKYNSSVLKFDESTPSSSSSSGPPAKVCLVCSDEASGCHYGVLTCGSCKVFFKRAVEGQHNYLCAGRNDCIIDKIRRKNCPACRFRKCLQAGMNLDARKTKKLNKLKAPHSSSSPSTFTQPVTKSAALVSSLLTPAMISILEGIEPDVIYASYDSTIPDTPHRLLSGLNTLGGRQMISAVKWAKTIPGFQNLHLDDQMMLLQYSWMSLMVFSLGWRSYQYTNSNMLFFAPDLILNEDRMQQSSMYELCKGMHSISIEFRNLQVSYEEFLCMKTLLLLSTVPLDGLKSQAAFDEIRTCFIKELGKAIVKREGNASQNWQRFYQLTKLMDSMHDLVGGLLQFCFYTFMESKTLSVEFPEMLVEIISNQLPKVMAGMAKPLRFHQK
Source text: as §1

Assay [3] addresses T3, FLAG-tagged wild-type elephant shark MR (Callorhinchus milii, UniProt A0A4W3I5J5).
T3 construct: gene nr3c2; full-length, N-terminal FLAG tag, transiently expressed in HEK293 cells
The settings on record: MMTV-luc promoter; agonist; 37 C. An excerpt:
luciferase reporter transactivation in HEK293 cells on FLAG-tagged wild-type elephant shark MR

Drawing on PMC10446182, “Reduced steroid activation of elephant shark GR and MR after inserting four amino acids from the DNA-binding domain of lamprey corticoid receptor-1” (PLOS ONE, 2023), this text covers EC50 for five molecules.

Like-named read-outs stand apart in the source and are kept apart here.

T3 sequence (A0A4W3I5J5 entry or part of it): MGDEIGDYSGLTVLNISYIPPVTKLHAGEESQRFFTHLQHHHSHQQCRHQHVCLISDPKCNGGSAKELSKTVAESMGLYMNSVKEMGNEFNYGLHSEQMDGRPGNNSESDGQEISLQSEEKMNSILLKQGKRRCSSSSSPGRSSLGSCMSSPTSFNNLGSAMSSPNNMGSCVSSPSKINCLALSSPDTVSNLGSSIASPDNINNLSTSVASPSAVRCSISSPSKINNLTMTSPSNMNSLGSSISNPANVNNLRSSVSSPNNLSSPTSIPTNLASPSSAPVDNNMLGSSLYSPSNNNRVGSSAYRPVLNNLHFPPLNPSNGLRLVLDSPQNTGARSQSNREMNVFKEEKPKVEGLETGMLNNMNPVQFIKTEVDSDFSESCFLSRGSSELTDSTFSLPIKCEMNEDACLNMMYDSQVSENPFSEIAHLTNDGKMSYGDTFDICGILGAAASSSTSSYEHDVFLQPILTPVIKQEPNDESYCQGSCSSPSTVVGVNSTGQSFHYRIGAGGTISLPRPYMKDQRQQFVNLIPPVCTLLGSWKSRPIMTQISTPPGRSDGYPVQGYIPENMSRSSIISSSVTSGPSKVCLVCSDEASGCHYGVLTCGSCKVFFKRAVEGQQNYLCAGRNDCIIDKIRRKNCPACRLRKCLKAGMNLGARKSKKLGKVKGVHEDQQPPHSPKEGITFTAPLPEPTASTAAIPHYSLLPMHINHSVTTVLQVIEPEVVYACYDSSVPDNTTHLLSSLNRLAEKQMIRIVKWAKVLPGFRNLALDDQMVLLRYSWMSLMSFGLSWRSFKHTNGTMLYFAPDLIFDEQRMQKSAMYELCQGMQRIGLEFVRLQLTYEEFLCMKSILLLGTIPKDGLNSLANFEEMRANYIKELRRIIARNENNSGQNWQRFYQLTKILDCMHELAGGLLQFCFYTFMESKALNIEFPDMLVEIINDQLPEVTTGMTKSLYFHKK

A word on the EC50: it is the concentration needed to bring the measured effect to its halfway point. A lower EC50 goes with an effect from little substance. As to `C[C@]12CCC(=O)C=C1CC[C@@H]1[C@@H]2[C@@H](O)C[C@@]2(C)[C@H]1CC[C@]2(O)C(=O)CO` [Cortisol], the EC50 in assay [1] is 0.0139 µM; in assay [2], 0.0252 µM; in assay [3], 0.0005 µM.
With `C[C@]12CCC(=O)C=C1CC[C@@H]1[C@@H]2[C@@H](O)C[C@]2(C=O)[C@@H](C(=O)CO)CC[C@@H]12` [Aldo, aldosterone], the EC50 in assay [2] came out at 0.0141 µM.
On to `C[C@]12C[C@H](O)[C@H]3[C@@H](CCC4=CC(=O)CC[C@@]43C)[C@@H]1CC[C@@H]2C(=O)CO` [CORT, Corticosterone], for which the EC50 in assay [2] was 0.006 µM.
For the molecule `C[C@]12CC[C@H]3[C@@H](CCC4=CC(=O)CC[C@@]43C)[C@@H]1CC[C@@H]2C(=O)CO` [DOC, 11-deoxycorticosterone], in assay [2], the midpoint of the response, the EC50, lay at 0.013 µM.
Take `C[C@]12CCC(=O)C=C1CC[C@@H]1[C@@H]2CC[C@@]2(C)[C@H]1CC[C@]2(O)C(=O)CO` [S, 11-deoxycortisol]: in assay [3], the midpoint of the response, the EC50, lay at 0.00013 µM.
